Experimental data published in US6630516B2, “Methods and compositions for preventing and treating chronological aging in human skin” (The Regents of the University of Michigan, priority 1997, dated 2003).
Entries after “also recorded” stand apart in the source; their conditions may differ.

Columns and labels:
[1] = test system: Type III procollagen α1(III) mRNA; assay: In vivo induction of Type III procollagen mRNA in elderly skin; parameters: species or system human; conditions: 1% retinol cream applied once to sun-protected skin, covered with a patch seven days; seven 80+ year old individuals
Experimental: Seven 80+ year old individuals were treated clinically with 1% retinol cream, applied once to sun-protected skin, covered with a patch, and left undisturbed for seven days.
Northern analysis of RNA. Total RNA (e.g., for c-Jun, procollagen α1(III)) was isolated from skin samples by guanidinium hydrochloride lysis and ultracentrifugation (as described by G. J. Fisher et al., “Cellular, immunologic and biochemical characterization of topical retinoic acid-treated human skin,” J Investig. Dermatol, 96:699-707 (1991)). Northern analysis of total RNA (40 μg/lane) with randomly primed ^32P labelled cDNA probes for the particular mRNA to be determined were performed as described by G. J. Fisher et al. (in “All trains retinoic acid induces cellular retinol-binding protein in human skin in vivo,” J Investig. Dermatol, 105:80-86 (1995)). Type III procollagen mRNA was determined using […].

[2] = test system: sun-protected skin of subjects at least 80 years old; assay: Histology and morphometry of elderly skin biopsied seven days after one topical treatment; assay type: in vivo, human
Source text: To investigate the treatment of chronologically-aged skin, 17 subjects having an age of at least 80 years old were given one topical treatment with 1% retinol or with vehicle alone, the test area was occluded for seven days, and the test area was then biopsied. The vehicle was composed of a mixture of ethanol and polyethylene glycol in a 70:30 volumetric ratio. In comparing vehicle-treated skin with untreated skin from individuals of the same elderly age range, there were no statistically significant differences in any of the parameters described with reference to FIG. 2, namely the number of fibroblasts and keratinocytes, the epidermal thickness, and undesirable dermal connective tissue features. […] Due to the short duration of the retinoid (retinol) treatment, little change in the number of detrimental dermal connective tissue features (11B) was apparent.
Histology and morphometry. Replicate 4-mm punch biopsies were obtained from buttock skin of each individual. Formalin-fixed tissue pieces were sectioned, stained with hematoxylin and eosin, randomized and blinded. The sections were examined using an Olympus BX40 microscope in conjunction with a Sony DCX-151 high-resolution camera. Blocked areas 200 μm on a side were isolated using NIH Imager software and epidermal height was assessed at four sites (25 μm apart) in each of two such areas. The same two blocked areas were used for epithelial cell counts. The number of interstitial cell nuclei (i.e., nuclei below the dermo-epidermal juncture, not associated with capillaries) over the entire histological section was determined as a measure of dermal cellularity. The same blinded sections were scored for connective tissue fiber spacing, thickness, degree of disorganization and depth of disorganization, using a scale of 1-9 for each parameter.

MMP-2 = assay: Gelatin zymography in biopsies of treated elderly skin (MMP-2); assay type: in vivo, human; conditions: seven days after a single retinol treatment, vs vehicle only
Source text: (§1) We also used the biopsies from the aforementioned volunteers to determine the effect of the same retinoid treatment on the relative activity of the same collagenase enzymes studied for the results shown in FIG. 4. FIGS. 14A, 14B, and 14C depict the average MMP activity levels (for collagenase MMP-1 and gelatinases MMP-9 and MMP-2, respectively) after treatment of elderly individuals with retinol. […] (In FIGS. 14A-14C, the number of subjects for each figure was 10; “*” indicates […] versus the 18-29 year old values, “**” indicates p<0.1, and “***” indicates p<0.001.)
(§2) Gelatin zymography (Varani et al., op. cit.) was used to assess MMP-2 (72-kD gelatinase; gelatinase A) and MMP9 (92-kD gelatinase; gelatinase B) activity. Tissue extracts were electrophoresed in an 8.5% SDS-polyacrylamide gel containing 1 mg/ml of gelatin. After electrophoresis, the SDS was removed by three sequential washes in 1% Triton X-100. The first two washes were for 20 minutes each and the last was overnight. Quantitation of hydrolysis zone width was done by laser densitometry.

fibroblasts = assay: Ex vivo cell growth from biopsies after 7-day in vivo treatment (fibroblasts); parameters: species or system human; conditions: one application of 1% retinol in vivo, occluded seven days, biopsy cells cultured ex vivo; age over 80; p<0.05
Experimental: (§3) That is, an elderly volunteer was treated with retinol (one application of 1% retinol, occluded for seven days), the treated area was biopsied, and the keratinocytes and fibroblasts from the biopsy were cultured ex vivo. […] In particular, keratinocytes growth increased by about 30% (12A) while fibroblast growth increased by about 200% (12B), with p<0.05 for both. Accordingly, the topical application of a retinoid to aged skin would be expected to increase the number of keratinocytes and/or the number of fibroblasts in the skin.
(§4) Ex vivo cell growth. Biopsies were minced into small fragments (approximately 15 fragments per tissue piece) and the tissue fragments transferred to plastic cell culture flasks. Culture medium consisted of Dulbecco's Modified Minimal Essential Medium of Eagle with Earle's salts, non-essential amino acids and 10% fetal bovine serum. Tissue fragments were incubated at 37° C. and 5% CO2/95% air for up to one month. Each fragment was scored for whether keratinocytes and/or fibroblasts grew out of the tissue and from this, the percentage of fragments from which keratinocytes and fibroblasts were isolated was determined according to the method of Varani, J., et al., J Clin. Invest., 96, 1747-1756 (1994).

MMP-9 = assay: Gelatin zymography in biopsies of treated elderly skin (MMP-9); assay type: in vivo, human; conditions: seven days after a single retinol treatment, vs vehicle only, p<0.001
Source text: as §1, §2

procollagen protein = assay: Procollagen protein levels in chronologically-aged skin after treatment; assay type: in vivo, human; conditions: single application of 1% retinol to chronologically-aged skin, covered with air-permeable adhesive bandage, examined seven days later
Source text: (§5) In another aspect, this invention is directed to improving, or stimulating, the synthesis of Types I and III procollagen in an elderly person's skin. We have found there is a significant reduction in Types I and III procollagen synthesis in sun-protected skin of many (at least 50% of) aged individuals and that this condition can be treated by the topical application of a retinoid. Procollagen is a protein synthesized by skin fibroblast cells and then secreted into the extracellular medium, where it is converted by naturally occurring enzymes into collagen. Reduced procollagen synthesis in an elderly person's skin is manifest as a reduced presence of procollagen protein in both the upper dermis (extracellular) and in fibroblasts throughout the dermis, and can be determined (e.g.) by immunohistochemistry.
It has been found unexpectedly that topical treatment of elderly, chronoaged skin with a retinoid results in a restitution of intracellular procollagen protein levels similar to those observed in young individuals (such as those aged 40 and younger). […] It would be more preferable for elderly persons to apply the retinoid once or twice daily to maintain a therapeutic regimen, although the agent could be applied on a less frequent but preferably regular basis (e.g., every other day, or once weekly). […]

Type III procollagen = assay: Stained sectioned biopsies of elderly skin: Type III procollagen; assay type: in vivo, human; conditions: seven days after a single application of 1% retinol; 80+ volunteers; stained sections; vs vehicle
Source text: (§6) Additional sectioned and stained biopsies from our oldest (80+) group of volunteers after retinoid treatment are depicted in FIG. 18. As noted above, AP-1 induces MMP formation and is formed by the heterodimerization of c-Jun and c-Fos proteins. […] Thus, our invention appears to inhibit c-Jun formation and thereby inhibit the formation of AP-1 and the resulting MMPs. […] (The apparently lower density of procollagen in the dermis in FIG. 18C is an artifact of the section made; there is clearly a higher level of staining in the retinol treated section than in the vehicle treated section.)
as §5

ERK = ERK activity assay in biopsies of treated elderly skin; assay type: in vivo, human; conditions: 1% retinol applied to sun-protected skin, occluded, examined seven days later; three 80+ year old volunteers; control normalized to one
Source text: Using the same technique as previously described for retinoid treatment (1% retinol applied to sun-protected skin, occluded, and examined seven days later), we treated and then tested three of our 80+ year old volunteers to determine the effect of retinoid treatment on ERK activity. […] ERK phosphorylation and activity assays. ERK1 and ERK2 in skin supernatants were immunoprecipitated with antibodies from Santa Cruz Biotechnology Inc. and assayed for enzymatic activity using myelin basic protein as substrate, as described by J. D. Weber et al. (“Sustained activation of extracellular-signal regulated kinase I (ERK1) is required for the continued expression of cyclin D1 in G1 phase,” Biochem. J., 326:61-68 (1997)). Total and phosphorylated ERK1 and ERK2 in supernatants were determined by Western analysis, using antibodies from New England Biolabs Inc. (Beverly, Mass.)

c-Jun protein = assay: Stained sectioned biopsies of elderly skin: c-Jun protein; assay type: in vivo, human; conditions: seven days after a single application of 1% retinol; 80+ volunteers; stained sections
Source text: As noted above, AP-1 induces MMP formation and is formed by the heterodimerization of c-Jun and c-Fos proteins.

Type I procollagen = assay: Stained sectioned biopsies of elderly skin: Type I procollagen; assay type: in vivo, human; conditions: seven days after a single application of 1% retinol; 80+ volunteers; stained sections; vs vehicle
Source text: as §6, §5

MMP-1 = assay: Matrix metalloproteinase assay (collagenolytic activity) in biopsies of treated elderly skin; assay type: in vivo, human; conditions: seven days after a single retinol treatment, vs vehicle only, p<0.001
Source text: as §1
Matrix metalloproteinase assays. Tissue pieces were frozen in liquid nitrogen immediately after biopsy, homogenized in 20 mM Tris HCl (pH 7.6) plus 5 mM CaCl2, and centrifuged at 3000×g for 10 minutes to remove particulates. Ability to release soluble radioactive fragments from 3H-labeled fibrillar Type I collagen (described by Fisher, G. J., et al., Nature, 379, 335-339 (1996) and Hu, C-L, et al., Analytic. Biochem, 88, 638-643 (1978)) was used as a measure of collagenolytic activity. […] Subsequently, 0.2 μCi of collagen substrate (NEN-DuPont, Boston, Mass.) was incubated for 24 hours with 50 μl of tissue extract. […] Radioactivity remaining in the supernatant fluid was then measured and from this, the percentage of substrate hydrolzyed was determined.

keratinocytes = assay: Ex vivo cell growth from biopsies after 7-day in vivo treatment (keratinocytes); parameters: species or system human; conditions: one application of 1% retinol in vivo, occluded seven days, biopsy cells cultured ex vivo; age over 80; p<0.05
Experimental: as §3, §4

[3] = 1% retinol, one topical application, occluded seven days, vs vehicle-treated skin, age 80+
[4] = one application of retinol, 7 days, sun-protected skin of an individual, vs vehicle-treated skin

SMILES: CC1=C(/C=C/C(C)=C/C=C/C(C)=C/CO)C(C)(C)CCC1 [retinol]
- increase in Type III procollagen mRNA from control (vehicle-treated) areas [1]: about 2.5 times
- mean increase in number of keratinocytes per section ([2]; 1% retinol, one topical application, occluded seven days, vs vehicle-treated skin of same individuals, age 80+, p<0.001): 273%
- mean increase in number of fibroblasts per section ([2]; 1% retinol, one topical application, occluded seven days, vs vehicle-treated skin of same individuals, age 80+, p<0.05): 30%
- epidermal thickness [2, 3]: increased the epidermal thickness substantially; also recorded: thickened
- number of detrimental dermal connective tissue features [2, 3]: little change
- appearance of dermal collagen [2, 4]: denser and more regular
- interfacial surface area between epidermis and dermis (rete pegs and dermal papillae) [2, 4]: increased
- change in the activity of MMP-2 (MMP-2): no significant change
- increase in ex vivo fibroblast growth (fibroblasts): about 200%
- decrease in MMP-9 activity (MMP-9): 39%
- procollagen protein levels (procollagen protein): comparable to those found in sun-protected skin of significantly younger individuals
- level of Type III procollagen in skin (Type III procollagen): increased; also recorded: enhanced
- ERK activity in vivo compared with vehicle-treated area (ERK): more than doubled
- c-Jun level in elderly skin compared with vehicle-treated skin (c-Jun protein): decreased; also recorded: significantly reduced (almost absent)
- level of Type I procollagen in skin (Type I procollagen): increased; also recorded: enhanced
- decrease in MMP-1 activity (MMP-1): 48%
- increase in ex vivo keratinocytes growth (keratinocytes): about 30%
